Test results reported in ChEMBL document CHEMBL1201862, “PubChem BioAssay data set” (2004).
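The compound was tested at five concentrations on cells cultured in 96-well plates, with a 48-hour exposure period. Here, GI50 denotes the concentration required for 50% inhibition of growth.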 The source made the active and inactive calls. Rule as the data show it: active = GI50 up to about 1.1 µM and inactive = higher.

Legend:
Experiment in all cases: DTP human tumour cell line panel, 48 h
HL-60 = tested on: HL-60
COLO 205 = tested on: COLO 205
SNB-75 = tested on: SNB-75
NCI-H522 = tested on: NCI-H522
SF-295 = tested on: SF-295
CAKI-1 = tested on: CAKI-1
HOP-62 = tested on: HOP-62
A549 = tested on: A549
CCRF-CEM = tested on: CCRF-CEM
SW-620 = tested on: SW-620
NCI-H23 = tested on: NCI-H23
HOP-18 = tested on: HOP-18
SN12C = tested on: SN12C
SF-268 = tested on: SF-268
LOX IMVI = tested on: LOX IMVI
RPMI-8226 = tested on: RPMI-8226
UACC-62 = tested on: UACC-62
OVCAR-4 = tested on: OVCAR-4
OVCAR-5 = tested on: OVCAR-5
NCI-H460 = tested on: NCI-H460
SK-OV-3 = tested on: SK-OV-3
HCT-116 = tested on: HCT-116
TK-10 = tested on: TK-10
ACHN = tested on: ACHN
M19-MEL = tested on: M19-MEL
DMS-273 = tested on: DMS-273
SR = tested on: SR
KM12 = tested on: KM12
786-0 = tested on: 786-0
K562 = tested on: K562
OVCAR-8 = tested on: OVCAR-8
DMS-114 = tested on: DMS-114
IGROV-1 = tested on: IGROV-1
SK-MEL-2 = tested on: SK-MEL-2
NCI-H226 = tested on: NCI-H226
UACC-257 = tested on: UACC-257
SK-MEL-5 = tested on: SK-MEL-5
HOP-92 = tested on: HOP-92
HT-29 = tested on: HT-29
U-251 = tested on: U-251
DLD-1 = tested on: DLD-1
MOLT-4 = tested on: MOLT-4
OVCAR-3 = tested on: OVCAR-3
UO-31 = tested on: UO-31
SNB-19 = tested on: SNB-19
LXFL 529 = tested on: LXFL 529
XF498 = tested on: XF498
HCT-15 = tested on: HCT-15
SF-539 = tested on: SF-539
RXF 393 = tested on: RXF 393
M14 = tested on: M14
KM-20L2 = tested on: KM-20L2
Malme-3M = tested on: Malme-3M
SK-MEL-28 = tested on: SK-MEL-28
EKVX = tested on: EKVX
A498 = tested on: A498

`CC(C)C1=CC23CCC4C(C)(C(=O)O)CCCC4(C)C2CC1C1C(=O)N(c2ccccc2)C(=O)C13` (configuration not stated) was tested, and the GI50 (HL-60) was 95.9 µM (inactive), the GI50 (COLO 205) was 24.3 µM (inactive) and the GI50 (SNB-75) was 53.2 µM (inactive). For the same compound, the GI50 (NCI-H522) was 49.1 µM (inactive), the GI50 (SF-295) was 51.2 µM (inactive) and the GI50 (CAKI-1) was > 100 µM (inactive). The GI50 (HOP-62) was 51.3 µM (inactive), the GI50 (A549) was 31.6 µM (inactive) and the GI50 (CCRF-CEM) was 56.6 µM (inactive). For the same compound, the GI50 (SW-620) was 54 µM (inactive), the GI50 (NCI-H23) was > 100 µM (inactive) and the GI50 (HOP-18) was > 100 µM (inactive). For the same compound, the GI50 (SN12C) was 45.9 µM (inactive), the GI50 (SF-268) was 41.1 µM (inactive) and the GI50 (LOX IMVI) was 54.1 µM (inactive). The GI50 (RPMI-8226) was > 100 µM (inactive), the GI50 (UACC-62) was 38.6 µM (inactive) and the GI50 (OVCAR-4) was > 100 µM (inactive). For the same compound, the GI50 (OVCAR-5) was > 100 µM (inactive), the GI50 (NCI-H460) was 38.9 µM (inactive) and the GI50 (SK-OV-3) was 56.4 µM (inactive). The GI50 (HCT-116) was 39.1 µM (inactive), the GI50 (TK-10) was 43.5 µM (inactive) and the GI50 (ACHN) was 28.1 µM (inactive). For the same compound, the GI50 (M19-MEL) was 57.8 µM (inactive), the GI50 (DMS-273) was 36.1 µM (inactive) and the GI50 (SR) was > 100 µM (inactive). The GI50 (KM12) was 27.9 µM (inactive), the GI50 (786-0) was 55.2 µM (inactive) and the GI50 (K562) was 69.8 µM (inactive). The GI50 (OVCAR-8) was 64 µM (inactive), the GI50 (DMS-114) was 35.4 µM (inactive) and the GI50 (IGROV-1) was 37.2 µM (inactive). The GI50 (SK-MEL-2) was 20.1 µM (inactive), the GI50 (NCI-H226) was 15.5 µM (inactive) and the GI50 (UACC-257) was 26.1 µM (inactive). For the same compound, the GI50 (SK-MEL-5) was 44.2 µM (inactive), the GI50 (HOP-92) was 32.7 µM (inactive) and the GI50 (HT-29) was 38.6 µM (inactive). For the same compound, the GI50 (U-251) was 36.6 µM (inactive), the GI50 (DLD-1) was > 100 µM (inactive) and the GI50 (MOLT-4) was > 100 µM (inactive). For the same compound, the GI50 (OVCAR-3) was 33.7 µM (inactive), the GI50 (UO-31) was 43.7 µM (inactive) and the GI50 (SNB-19) was 46.9 µM (inactive). The GI50 (LXFL 529) was 43.9 µM (inactive), the GI50 (XF498) was 35.2 µM (inactive) and the GI50 (HCT-15) was 30.9 µM. For the same compound, the GI50 (SF-539) was 51.3 µM (inactive), the GI50 (RXF 393) was 27.4 µM (inactive) and the GI50 (M14) was 40.5 µM (inactive). The GI50 (KM-20L2) was 39.6 µM (inactive), the GI50 (Malme-3M) was 67.9 µM (inactive) and the GI50 (SK-MEL-28) was 53.2 µM (inactive).
For `O=C(O)CNS(=O)(=O)c1ccc(NC(=O)c2ccccc2[N+](=O)[O-])cc1`, the GI50 (HL-60) was > 100 µM (inactive), the GI50 (COLO 205) was > 100 µM (inactive) and the GI50 (EKVX) was > 100 µM (inactive). The GI50 (SNB-75) was > 100 µM (inactive), the GI50 (NCI-H522) was > 100 µM (inactive) and the GI50 (A498) was > 100 µM (inactive). For the same compound, the GI50 (CAKI-1) was > 100 µM (inactive), the GI50 (A549) was > 100 µM (inactive) and the GI50 (CCRF-CEM) was > 100 µM (inactive). The GI50 (SW-620) was > 100 µM (inactive), the GI50 (NCI-H23) was > 100 µM (inactive) and the GI50 (HOP-18) was > 100 µM (inactive). The GI50 (SN12C) was > 100 µM (inactive), the GI50 (SF-268) was > 100 µM (inactive) and the GI50 (LOX IMVI) was > 100 µM (inactive). For the same compound, the GI50 (RPMI-8226) was > 100 µM (inactive), the GI50 (UACC-62) was > 100 µM (inactive) and the GI50 (OVCAR-4) was > 100 µM (inactive). The GI50 (OVCAR-5) was > 100 µM (inactive), the GI50 (NCI-H460) was > 100 µM (inactive) and the GI50 (SK-OV-3) was > 100 µM (inactive). For the same compound, the GI50 (TK-10) was > 100 µM (inactive), the GI50 (ACHN) was > 100 µM (inactive) and the GI50 (M19-MEL) was > 100 µM (inactive). For the same compound, the GI50 (DMS-273) was > 100 µM (inactive), the GI50 (786-0) was > 100 µM (inactive) and the GI50 (K562) was > 100 µM (inactive). For the same compound, the GI50 (OVCAR-8) was > 100 µM (inactive), the GI50 (IGROV-1) was > 100 µM (inactive) and the GI50 (SK-MEL-2) was > 100 µM (inactive). For the same compound, the GI50 (UACC-257) was > 100 µM (inactive), the GI50 (SK-MEL-5) was > 100 µM (inactive) and the GI50 (HOP-92) was > 100 µM (inactive). For the same compound, the GI50 (HT-29) was > 100 µM (inactive), the GI50 (U-251) was > 100 µM (inactive) and the GI50 (DLD-1) was > 100 µM (inactive). The GI50 (MOLT-4) was > 100 µM (inactive), the GI50 (UO-31) was > 100 µM (inactive) and the GI50 (SNB-19) was > 100 µM (inactive). For the same compound, the GI50 (LXFL 529) was > 100 µM (inactive), the GI50 (XF498) was > 100 µM (inactive) and the GI50 (HCT-15) was over 100 µM. For the same compound, the GI50 (SF-539) was > 100 µM (inactive), the GI50 (RXF 393) was > 100 µM (inactive) and the GI50 (M14) was > 100 µM (inactive). The GI50 (KM-20L2) was > 100 µM (inactive), the GI50 (Malme-3M) was > 100 µM (inactive) and the GI50 (SK-MEL-28) was > 100 µM (inactive).
